Assay results as given in PubChem BioAssay AID1259407 (Chemical Carcinogenesis Research Information System (CCRIS), 2018).
Calls of active or inactive are those of the source. How the calls were made is not given here.

System: CCRIS mutagenicity, Ames/micronucleus/aberration tests
Test: CCRIS mutagenicity studies
[1] = Test System: AMES SALMONELLA TYPHIMURIUM, Strain/Indicator: TA100, Metabolic Activation: NONE, Method: PREINCUBATION
[2] = Test System: AMES SALMONELLA TYPHIMURIUM, Strain/Indicator: TA100, Metabolic Activation: NONE, Method: STANDARD PLATE

SMILES: Nc1cc([N+](=O)[O-])ccc1-c1ccc([N+](=O)[O-])cc1
- mutagenic call (Test System: AMES SALMONELLA TYPHIMURIUM, Strain/Indicator: TA98, Metabolic Activation: NONE, Method: PREINCUBATION): active; positive
- mutagenic call (Test System: AMES SALMONELLA TYPHIMURIUM, Strain/Indicator: TA98, Metabolic Activation: RAT LIVER S-9, AROCLOR 1254, Method: PREINCUBATION): active; positive
- mutagenic call [1]: active; positive
- mutagenic call [2]: active; positive
- mutagenic call (Test System: AMES SALMONELLA TYPHIMURIUM, Strain/Indicator: TA100, Metabolic Activation: RAT LIVER S-9, AROCLOR 1254, Method: PREINCUBATION): active; positive
- mutagenic call (Test System: AMES SALMONELLA TYPHIMURIUM, Strain/Indicator: TA104, Metabolic Activation: NONE, Method: STANDARD PLATE): active; positive
- mutagenic call (Test System: AMES SALMONELLA TYPHIMURIUM, Strain/Indicator: TA4001, Metabolic Activation: NONE, Method: STANDARD PLATE): inactive; negative
- mutagenic call (Test System: AMES SALMONELLA TYPHIMURIUM, Strain/Indicator: TA4006, Metabolic Activation: NONE, Method: STANDARD PLATE): active; positive
- mutagenic call (Test System: AMES SALMONELLA TYPHIMURIUM, Strain/Indicator: TA7002, Metabolic Activation: NONE, Method: STANDARD PLATE): active; positive
- mutagenic call (Test System: AMES SALMONELLA TYPHIMURIUM, Strain/Indicator: TA7002, Metabolic Activation: RAT LIVER S-9, AROCLOR 1254, Method: STANDARD PLATE): active; positive
- mutagenic call (Test System: AMES SALMONELLA TYPHIMURIUM, Strain/Indicator: TA7003, Metabolic Activation: NONE, Method: STANDARD PLATE): active; positive
- mutagenic call (Test System: AMES SALMONELLA TYPHIMURIUM, Strain/Indicator: TA7003, Metabolic Activation: RAT LIVER S-9, AROCLOR 1254, Method: STANDARD PLATE): active; positive
- mutagenic call (Test System: AMES SALMONELLA TYPHIMURIUM, Strain/Indicator: TA7004, Metabolic Activation: NONE, Method: STANDARD PLATE): active; positive
- mutagenic call (Test System: AMES SALMONELLA TYPHIMURIUM, Strain/Indicator: TA7004, Metabolic Activation: RAT LIVER S-9, AROCLOR 1254, Method: STANDARD PLATE): active; positive
- mutagenic call (Test System: AMES SALMONELLA TYPHIMURIUM, Strain/Indicator: TA7005, Metabolic Activation: NONE, Method: STANDARD PLATE): active; positive
- mutagenic call (Test System: AMES SALMONELLA TYPHIMURIUM, Strain/Indicator: TA7005, Metabolic Activation: RAT LIVER S-9, AROCLOR 1254, Method: STANDARD PLATE): active; positive
- mutagenic call (Test System: AMES SALMONELLA TYPHIMURIUM, Strain/Indicator: TA7006, Metabolic Activation: NONE, Method: STANDARD PLATE): active; positive
- mutagenic call (Test System: AMES SALMONELLA TYPHIMURIUM, Strain/Indicator: TA7006, Metabolic Activation: RAT LIVER S-9, AROCLOR 1254, Method: STANDARD PLATE): active; positive
- mutagenic call (Test System: Ames Salmonella typhimurium, Strain/Indicator: TA102, Metabolic Activation: None, Method: Preincubation): active; positive
- mutagenic call (Test System: Ames Salmonella typhimurium, Strain/Indicator: TA102, Metabolic Activation: Rat, liver, S-9, Aroclor 1254 (4%), Method: Preincubation): inactive; negative

SMILES: Cc1cc2cccc3ccc4cc5ccccc5c1c4c32
- mutagenic call (Test System: AMES SALMONELLA TYPHIMURIUM, Strain/Indicator: TA100, Metabolic Activation: RAT, INTACT HEPATOCYTES, AROCLOR 1254, Method: PREINCUBATION): active; positive
- mutagenic call (Test System: AMES SALMONELLA TYPHIMURIUM, Strain/Indicator: TA100, Metabolic Activation: RAT, NADPH-FORTIFIED HOMOGENIZED HEPATOCYTES, AROCLOR 1254, Method: PREINCUBATION): active; positive

SMILES: O=C(OCc1ccc(Cl)cc1)c1cccc2cccnc12
- mutagenic call (Test System: AMES SALMONELLA TYPHIMURIUM, Strain/Indicator: TA98, Metabolic Activation: NONE, Method: STANDARD PLATE): inactive; negative
- mutagenic call (Test System: AMES SALMONELLA TYPHIMURIUM, Strain/Indicator: TA98, Metabolic Activation: RAT, LIVER, S-9, AROCLOR 1254, Method: STANDARD PLATE): inactive; negative
- mutagenic call [2]: inactive; negative
- mutagenic call (Test System: AMES SALMONELLA TYPHIMURIUM, Strain/Indicator: TA100, Metabolic Activation: RAT, LIVER, S-9, AROCLOR 1254, Method: STANDARD PLATE): inactive; negative
- mutagenic call (Test System: AMES SALMONELLA TYPHIMURIUM, Strain/Indicator: TA1535, Metabolic Activation: NONE, Method: STANDARD PLATE): inactive; negative
- mutagenic call (Test System: AMES SALMONELLA TYPHIMURIUM, Strain/Indicator: TA1535, Metabolic Activation: RAT, LIVER, S-9, AROCLOR 1254, Method: STANDARD PLATE): inactive; negative
- mutagenic call (Test System: AMES SALMONELLA TYPHIMURIUM, Strain/Indicator: TA1537, Metabolic Activation: NONE, Method: STANDARD PLATE): inactive; negative
- mutagenic call (Test System: AMES SALMONELLA TYPHIMURIUM, Strain/Indicator: TA1537, Metabolic Activation: RAT, LIVER, S-9, AROCLOR 1254, Method: STANDARD PLATE): inactive; negative

SMILES: CC12OOC1(CO)Oc1ccccc12 (stereo unspecified)
- mutagenic call [1]: inactive; negative
